From patent US12209096B2, “Compounds and compositions for inducing chondrogenesis” (NOVARTIS AG, priority 2017, dated 2025)
pEC50: −log10 of the molar value. Like-named read-outs stand apart in the source and are kept apart here.

System: NHACs
Assay: calcium flux assay
Assay type: cell-based, human
Conditions: for Emax: read-out: (A) % Efficacy
Description: NHACs were plated in 1536 Greiner plate at 2000 cells/well in 4 ul volume. 24 hours later, 4 ul of Calcium 5 dye solution (Hank's Balanced Salt/HEPES buffer containing 5 mM of Probenecid) was then added and incubated for 1 hour at room temperature. Fluorescence readings at excitation wavelength of 470-495 nm and emission wavelength of 515-575 nm were done using FLIPR high-throughput screening system (Molecular Devices, Sunnyvale, CA). The test compound was then added to each well at the indicated dose. Signal was measured prior compound dispense and after using a first interval of 1 second for 60 reads and second interval of 3 second for 20 reads. Data was analyzed using Molecular Devices ScreenWorks® Software.

pEC50 (Homo sapiens)	pEC50	Structure (SMILES)	Emax (Homo sapiens)	(A) % Efficacy
< 4.30		O=C(Nc1cccc(C(F)(F)F)c1)[C@@H]1[C@@H]2O[C@@H]([C@H]3C[C@H]32)[C@@H]1c1cncnc1 [Example 37, (1S,2S,4R,5R,6S,7S)-7-(pyrimidin-5-yl)-N-(3-(trifluoromethyl)phenyl)-8-oxatricyclo[3.2.1.0^2,4]octane-6-carboxamide]	26%	
5.00		O=C(Nc1cccc(C(F)(F)F)c1)[C@@H]1[C@@H]2O[C@@H]([C@H]3C[C@H]32)[C@@H]1c1ccncc1 [Example 38, (1S,2S,4R,5R,6S,7S)-7-(pyridin-4-yl)-N-(3-(trifluoromethyl)phenyl)-8-oxatricyclo[3.2.1.0^2,4]octane-6-carboxamide]	36%	
6.28		Nc1ncc([C@H]2[C@H]3O[C@H]([C@@H]4C[C@@H]43)[C@H]2C(=O)Nc2ccc(Cl)c(Cl)c2)cn1 [Example 39, (1S,2S,4R,5R,6S,7S)-7-(2-aminopyrimidin-5-yl)-N-(3,4-dichlorophenyl)-8-oxatricyclo[3.2.1.0^2,4]octane-6-carboxamide]	40%	
< 4.30		O=C(Nc1ccc(Cl)c(Cl)c1)[C@@H]1[C@@H]2O[C@@H]([C@H]3C[C@H]32)[C@@H]1c1cnc(N2CCOCC2)nc1 [Example 40, (1S,2S,4R,5R,6S,7S)—N-(3,4-dichlorophenyl)-7-(2-morpholinopyrimidin-5-yl)-8-oxatricyclo[3.2.1.0^2,4]octane-6-carboxamide]	37%	
4.62		O=C(Nc1cccc(C(F)(F)F)c1)[C@@H]1[C@@H]2O[C@@H]([C@H]3C[C@H]32)[C@@H]1c1ccnc(F)c1 [Example 41, (1S,2S,4R,5R,6S,7S)-7-(2-fluoropyridin-4-yl)-N-(3-(trifluoromethyl)phenyl)-8-oxatricyclo[3.2.1.0^2,4]octane-6-carboxamide]	121%	
4.74		Cc1ncc([C@H]2[C@H]3O[C@H]([C@@H]4C[C@@H]43)[C@H]2C(=O)Nc2ccc(Cl)c(Cl)c2)cn1 [Example 42, (1S,2S,4R,5R,6S,7S)—N-(3,4-dichlorophenyl)-7-(2-methylpyrimidin-5-yl)-8-oxatricyclo[3.2.1.0^2,4]octane-6-carboxamide]	57%	
	< 4.30	O=C(Nc1cnc(Cl)c(Cl)c1)[C@@H]1[C@@H]2O[C@@H]([C@H]3C[C@H]32)[C@@H]1c1ccncc1 [Example 43a, (1S,2S,4R,5R,6S,7S)—N-(5,6-dichloropyridin-3-yl)-7-(pyridin-4-yl)-8-oxatricyclo[3.2.1.0^24]octane-6-carboxamide]		0%
< 4.30		O=C(Nc1ccc(Cl)c(Cl)c1)[C@@H]1[C@@H]2O[C@@H]([C@H]3C[C@H]32)[C@@H]1c1ccncc1 [Example 44, (1S,2S,4R,5R,6S,7S)—N-(3,4-dichlorophenyl)-7-(pyridin-4-yl)-8-oxatricyclo[3.2.1.0^2,4]octane-6-carboxamide]	0%	
4.66		Cc1ccc([C@H]2[C@H]3O[C@H](C[C@@H]3O)[C@H]2C(=O)Nc2ccc(Cl)c(Cl)c2)cn1 [Example 48, (1R,2S,3S,4R,5S)—N-(3,4-dichlorophenyl)-5-hydroxy-3-(6-methylpyridin-3-yl)-7-oxabicyclo[2.2.1]heptane-2-carboxamide]	80%	
4.68		O=C(Nc1ccc(Cl)c(Cl)c1)[C@H]1[C@@H](c2cccc(C(F)(F)F)n2)[C@H]2O[C@@H]1C[C@@H]2O [Example 50, (1R,2S,3S,4R,5S)—N-(3,4-dichlorophenyl)-5-hydroxy-3-(6-(trifluoromethyl)pyridin-2-yl)-7-oxabicyclo[2.2.1]heptane-2-carboxamide]	308%	
< 4.30		O=C(Nc1ccc(Cl)c(Cl)c1)[C@H]1[C@@H](c2cncnc2)[C@H]2O[C@@H]1C[C@@H]2O [Example 51, (1R,2S,3S,4R,5S)—N-(3,4-dichlorophenyl)-5-hydroxy-3-(pyrimidin-5-yl)-7-oxabicyclo[2.2.1]heptane-2-carboxamide]	0%	
< 4.30		CN(C)c1ncc([C@H]2[C@H]3O[C@H](C[C@@H]3O)[C@H]2C(=O)Nc2ccc(Cl)c(Cl)c2)cn1 [Example 55, (1R,2S,3S,4R,5S)—N-(3,4-dichlorophenyl)-3-(2-(dimethylamino)pyrimidin-5-yl)-5-hydroxy-7-oxabicyclo[2.2.1]heptane-2-carboxamide]	0%	
< 4.30		Cc1ncc([C@H]2[C@H]3O[C@H](C[C@@H]3O)[C@H]2C(=O)Nc2ccc(Cl)c(Cl)c2)cn1 [Example 56, (1R,2S,3S,4R,5S)—N-(3,4-dichlorophenyl)-5-hydroxy-3-(2-methylpyrimidin-5-yl)-7-oxabicyclo[2.2.1]heptane-2-carboxamide]	0%	
< 4.30		Nc1cc([C@H]2[C@H]3O[C@H](C[C@@H]3O)[C@H]2C(=O)Nc2ccc(Cl)c(Cl)c2)ccn1 [Example 57, (1R,2S,3S,4R,5S)-3-(2-aminopyridin-4-yl)-N-(3,4-dichlorophenyl)-5-hydroxy-7-oxabicyclo[2.2.1]heptane-2-carboxamide]	56%	
< 4.30		O=C(Nc1ccc(Cl)c(Cl)c1)[C@H]1[C@@H](c2cc(F)ncc2F)[C@H]2O[C@@H]1C[C@@H]2O [Example 58, (1R,2S,3S,4R,5S)—N-(3,4-dichlorophenyl)-3-(2,5-difluoropyridin-4-yl)-5-hydroxy-7-oxabicyclo[2.2.1]heptane-2-carboxamide]	0%	
5.92		O=C(Nc1ccc(Cl)c(Cl)c1)[C@H]1[C@@H](c2ccnc(F)c2F)[C@H]2O[C@@H]1C[C@@H]2O [Example 59, (1R,2S,3S,4R,5S)—N-(3,4-dichlorophenyl)-3-(2,3-difluoropyridin-4-yl)-5-hydroxy-7-oxabicyclo[2.2.1]heptane-2-carboxamide]	254%	
< 4.30		Nc1ncc([C@H]2[C@H]3O[C@H](C[C@@H]3O)[C@H]2C(=O)Nc2ccc(Cl)c(Cl)c2)cn1 [Example 60, (1R,2S,3S,4R,5S)-3-(2-aminopyrimidin-5-yl)-N-(3,4-dichlorophenyl)-5-hydroxy-7-oxabicyclo[2.2.1]heptane-2-carboxamide]	2%	
< 4.30		O=C(Nc1ccc(Cl)c(Cl)c1)[C@H]1[C@@H](c2cnc(F)nc2)[C@H]2O[C@@H]1C[C@@H]2O [Example 61, (1R,2S,3S,4R,5S)—N-(3,4-dichlorophenyl)-3-(2-fluoropyrimidin-5-yl)-5-hydroxy-7-oxabicyclo[2.2.1]heptane-2-carboxamide]	24%	
5.09		O=C(Nc1ccc(Cl)c(Cl)c1)[C@H]1[C@@H](c2cnc(C(F)(F)F)nc2)[C@H]2O[C@@H]1C[C@@H]2O [Example 62, (1R,2S,3S,4R,5S)—N-(3,4-dichlorophenyl)-5-hydroxy-3-(2-(trifluoromethyl)pyrimidin-5-yl)-7-oxabicyclo[2.2.1]heptane-2-carboxamide]	61%	
< 4.30		CO[C@H]1C[C@H]2O[C@@H]1[C@H](c1ccnc(C)c1)[C@@H]2C(=O)Nc1ccc(Cl)c(Cl)c1 [Example 63, (1R,2S,3S,4R,5S)—N-(3,4-dichlorophenyl)-5-methoxy-3-(2-methylpyridin-4-yl)-7-oxabicyclo[2.2.1]heptane-2-carboxamide]	9%	
4.68		Cc1ccc([C@H]2[C@H]3O[C@H](C[C@H]3F)[C@H]2C(=O)Nc2ccc(Cl)c(Cl)c2)cn1 [Example 64, (1R,2S,3S,4R,5R)—N-(3,4-dichlorophenyl)-5-fluoro-3-(6-methylpyridin-3-yl)-7-oxabicyclo[2.2.1]heptane-2-carboxamide]	253%	
4.74		COc1cc([C@H]2[C@H]3O[C@H](C[C@H]3F)[C@H]2C(=O)Nc2ccc(Cl)c(Cl)c2)ccn1 [Example 65, (1R,2S,3S,4R,5R)—N-(3,4-dichlorophenyl)-5-fluoro-3-(2-methoxypyridin-4-yl)-7-oxabicyclo[2.2.1]heptane-2-carboxamide]	169%	
4.70		Cc1cc([C@H]2[C@H]3O[C@H]([C@@H]4C[C@@H]43)[C@@H]2C(=O)Nc2ccc(Cl)c(C#N)c2)ccn1 [Example 66, (1S,2S,4R,5R,6R,7S)—N-(4-chloro-3-cyanophenyl)-7-(2-methylpyridin-4-yl)-8-oxatricyclo[3.2.1.0^2,4]octane-6-carboxamide]	179%	
< 4.30		Cc1cc([C@H]2[C@H]3O[C@H]([C@@H]4C[C@@H]43)[C@@H]2C(=O)Nc2ccc(Cl)cc2C#N)ccn1 [Example 67, (1S,2S,4R,5R,6R,7S)—N-(4-chloro-2-cyanophenyl)-7-(2-methylpyridin-4-yl)-8-oxatricyclo[3.2.1.0^2,4]octane-6-carboxamide]	39%	
4.82		Cc1cc([C@H]2[C@H]3O[C@H]([C@@H]4C[C@@H]43)[C@@H]2C(=O)Nc2ccc(Cl)c(F)c2)ccn1 [Example 68, (1S,2S,4R,5R,6R,7S)—N-(4-chloro-3-fluorophenyl)-7-(2-methylpyridin-4-yl)-8-oxatricyclo[3.2.1.0^2,4]octane-6-carboxamide]	306%	
5.21		Cc1cc([C@H]2[C@H]3O[C@H]([C@@H]4C[C@@H]43)[C@@H]2C(=O)Nc2ccc(OC(F)(F)F)c(F)c2)ccn1 [Example 71, (1S,2S,4R,5R,6R,7S)—N-(3-fluoro-4-(trifluoromethoxy)phenyl)-7-(2-methylpyridin-4-yl)-8-oxatricyclo[3.2.1.0^2,4]octane-6-carboxamide]	250%	
5.24		COc1cc([C@H]2[C@H]3O[C@H]([C@@H]4C[C@@H]43)[C@@H]2C(=O)Nc2cnc(Cl)c(Cl)c2)ccn1 [Example 76, (1S,2S,4R,5R,6R,7S)—N-(5,6-dichloropyridin-3-yl)-7-(2-methoxypyridin-4-yl)-8-oxatricyclo[3.2.1.0^2,4]octane-6-carboxamide]	123%	
